Results reported in ChEMBL document CHEMBL1201862, “PubChem BioAssay data set” (2004).
The source made the active and inactive calls.

Legend:
Protein skinhead-1 = biological target: T1, Protein skinhead-1 (Caenorhabditis elegans, UniProt P34707); type: functional
T1 sequence (P34707 whole entry): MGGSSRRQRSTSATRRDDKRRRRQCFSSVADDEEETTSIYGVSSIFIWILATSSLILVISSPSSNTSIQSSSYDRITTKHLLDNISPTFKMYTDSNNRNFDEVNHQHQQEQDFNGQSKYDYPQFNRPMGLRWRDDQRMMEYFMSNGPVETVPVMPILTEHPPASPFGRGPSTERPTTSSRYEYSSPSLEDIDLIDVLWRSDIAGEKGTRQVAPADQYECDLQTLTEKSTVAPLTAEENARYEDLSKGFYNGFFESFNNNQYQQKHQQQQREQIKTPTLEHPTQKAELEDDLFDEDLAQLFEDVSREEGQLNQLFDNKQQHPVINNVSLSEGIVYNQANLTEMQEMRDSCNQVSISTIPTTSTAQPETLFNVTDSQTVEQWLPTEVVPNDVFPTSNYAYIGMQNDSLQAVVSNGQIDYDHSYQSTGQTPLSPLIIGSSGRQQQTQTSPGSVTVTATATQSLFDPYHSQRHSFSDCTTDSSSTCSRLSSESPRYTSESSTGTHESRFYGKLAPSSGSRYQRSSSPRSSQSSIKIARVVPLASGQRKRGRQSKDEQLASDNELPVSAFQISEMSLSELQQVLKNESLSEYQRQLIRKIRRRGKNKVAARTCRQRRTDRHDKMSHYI

[1] = biological target: T2, Heat shock factor protein 1 (Mus musculus, UniProt P38532); experiment: HSF1 potentiators in luciferase reporter cells, confirmation, cell-based, NIH3T3, luminescence, dose retest (AID 435004); type: functional;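 also: stress induced by proteasome inhibitor MG132 added 30 min after compound; luciferase reporter driven by HSF1 response element in NIH3T3 cells; actives raise luminescence as potentiators of the MG132 stress response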
T2 sequence (P38532 whole entry): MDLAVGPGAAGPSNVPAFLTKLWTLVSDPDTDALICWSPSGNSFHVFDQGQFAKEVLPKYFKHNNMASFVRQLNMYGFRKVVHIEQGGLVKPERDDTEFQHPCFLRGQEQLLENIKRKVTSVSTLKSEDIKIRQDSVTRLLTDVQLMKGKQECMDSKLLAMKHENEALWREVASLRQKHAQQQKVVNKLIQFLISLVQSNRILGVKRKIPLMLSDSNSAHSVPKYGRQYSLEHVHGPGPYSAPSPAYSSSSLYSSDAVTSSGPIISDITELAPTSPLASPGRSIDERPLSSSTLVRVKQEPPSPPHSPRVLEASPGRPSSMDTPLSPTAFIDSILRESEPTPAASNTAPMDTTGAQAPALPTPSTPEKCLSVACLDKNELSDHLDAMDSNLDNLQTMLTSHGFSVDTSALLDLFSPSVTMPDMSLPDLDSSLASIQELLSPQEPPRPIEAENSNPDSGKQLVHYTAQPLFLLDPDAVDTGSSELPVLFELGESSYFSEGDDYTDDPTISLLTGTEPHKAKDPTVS

[2] = biological target: T3, Replicative DNA helicase DnaB (Mycobacterium tuberculosis, UniProt P9WMR3); experiment: DnaB intein splicing inhibitors, dose response, biochemical, cell-free fluorescence (AID 449749); type: functional
T3 sequence (P9WMR3 whole entry): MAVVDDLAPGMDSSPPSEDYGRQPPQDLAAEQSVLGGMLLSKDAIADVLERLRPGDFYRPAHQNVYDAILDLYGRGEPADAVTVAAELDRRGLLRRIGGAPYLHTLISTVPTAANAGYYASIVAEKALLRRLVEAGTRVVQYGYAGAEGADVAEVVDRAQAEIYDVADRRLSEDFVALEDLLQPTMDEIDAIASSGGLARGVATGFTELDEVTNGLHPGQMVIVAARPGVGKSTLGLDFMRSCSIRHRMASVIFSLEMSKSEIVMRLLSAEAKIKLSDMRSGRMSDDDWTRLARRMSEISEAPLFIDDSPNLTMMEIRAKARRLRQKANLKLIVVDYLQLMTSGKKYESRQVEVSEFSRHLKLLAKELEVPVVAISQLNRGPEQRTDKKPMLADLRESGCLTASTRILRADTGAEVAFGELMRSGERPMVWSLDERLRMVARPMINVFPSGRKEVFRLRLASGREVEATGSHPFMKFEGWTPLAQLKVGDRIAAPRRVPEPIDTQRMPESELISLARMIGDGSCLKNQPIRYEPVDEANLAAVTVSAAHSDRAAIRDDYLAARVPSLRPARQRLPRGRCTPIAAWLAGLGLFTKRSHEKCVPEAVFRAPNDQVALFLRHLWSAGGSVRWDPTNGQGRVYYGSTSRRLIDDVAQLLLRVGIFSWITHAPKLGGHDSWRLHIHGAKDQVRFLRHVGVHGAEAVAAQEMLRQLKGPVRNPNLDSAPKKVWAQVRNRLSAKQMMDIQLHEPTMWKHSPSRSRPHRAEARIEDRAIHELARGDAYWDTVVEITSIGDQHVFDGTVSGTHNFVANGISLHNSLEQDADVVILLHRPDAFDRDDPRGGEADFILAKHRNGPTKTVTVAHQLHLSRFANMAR

Protein RecA = biological target: T4, Protein RecA (Mycobacterium tuberculosis, UniProt P9WHJ3); experiment: Fluorescence Cell-Free Homogeneous Dose Retest to Identify Inhibitors of RecA-Intein Splicing Activity. [Related pubchem assays (depositor defined):AID2097, AID2223, AID489010, AID492950]; type: functional
T4 sequence (P9WHJ3 whole entry): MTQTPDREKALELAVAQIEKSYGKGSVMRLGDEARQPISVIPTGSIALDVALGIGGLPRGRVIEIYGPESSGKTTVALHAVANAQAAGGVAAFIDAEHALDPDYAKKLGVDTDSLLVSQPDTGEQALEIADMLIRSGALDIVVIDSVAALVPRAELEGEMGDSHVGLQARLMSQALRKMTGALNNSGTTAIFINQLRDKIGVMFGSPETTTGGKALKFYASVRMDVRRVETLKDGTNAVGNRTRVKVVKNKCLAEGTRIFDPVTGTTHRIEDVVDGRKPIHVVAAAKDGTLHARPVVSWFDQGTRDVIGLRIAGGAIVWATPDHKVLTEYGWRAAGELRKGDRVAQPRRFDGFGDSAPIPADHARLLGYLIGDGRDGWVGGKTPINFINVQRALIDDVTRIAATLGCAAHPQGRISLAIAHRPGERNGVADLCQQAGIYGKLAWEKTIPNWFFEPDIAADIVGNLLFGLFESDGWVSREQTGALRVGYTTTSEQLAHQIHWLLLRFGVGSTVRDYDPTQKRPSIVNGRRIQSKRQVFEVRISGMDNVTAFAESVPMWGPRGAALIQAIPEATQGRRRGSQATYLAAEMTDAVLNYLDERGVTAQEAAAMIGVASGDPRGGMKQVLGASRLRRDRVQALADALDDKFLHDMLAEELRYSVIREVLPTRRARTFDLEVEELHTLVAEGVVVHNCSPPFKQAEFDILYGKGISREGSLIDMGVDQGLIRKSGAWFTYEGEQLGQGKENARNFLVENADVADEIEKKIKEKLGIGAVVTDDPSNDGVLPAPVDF

[3] = biological target: Induced myeloid leukemia cell differentiation protein Mcl-1 (Homo sapiens, UniProt Q07820); type: functional
Chain of Induced myeloid leukemia cell differentiation protein Mcl-1 (Q07820 whole entry): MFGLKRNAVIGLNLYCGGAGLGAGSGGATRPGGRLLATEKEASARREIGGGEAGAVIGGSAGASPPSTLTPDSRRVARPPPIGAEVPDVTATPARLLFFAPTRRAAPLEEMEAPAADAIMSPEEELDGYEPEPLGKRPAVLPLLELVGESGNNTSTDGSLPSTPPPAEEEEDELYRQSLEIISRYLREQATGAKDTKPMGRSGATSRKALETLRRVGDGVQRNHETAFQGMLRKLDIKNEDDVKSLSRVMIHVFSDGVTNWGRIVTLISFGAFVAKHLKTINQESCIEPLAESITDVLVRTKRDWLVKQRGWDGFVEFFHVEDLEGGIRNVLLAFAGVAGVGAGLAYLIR

[4] = HEp-2 cell cytotoxicity, dose response, cytotoxicity control for RSV inhibitor project, HTS (AID 2410); type: functional; settings: human respiratory syncytial virus
[5] = cytotoxicity toward NIH3T3 fibroblasts, dose response, counter-screen, cell-based, ATP luminescence, mouse fibroblasts (AID 2010); type: functional;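 also: cells exposed to compound for about 90 hours before reading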
[6] = inhibitors of intracellular T. cruzi replication, confirmation, NIH3T3 host cells, beta-gal luminescence (AID 2044); type: functional, cell-based;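 also: intracellular parasites grown in NIH/3T3 mouse fibroblasts as host cells; luminescent beta-galactosidase reporter signal from transgenic T. cruzi replicating inside host cells; inhibitors lower the luminescence signal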
[7] = biological target: T5, Microphthalmia-associated transcription factor (Homo sapiens, UniProt O75030); experiment: TRPM1 promoter luciferase signal decrease, dose response, MITF inhibitor project, cell-based, SK-MEL-5, cherry-picked, set 3 (AID 493073); type: functional
T5 sequence (O75030 whole entry): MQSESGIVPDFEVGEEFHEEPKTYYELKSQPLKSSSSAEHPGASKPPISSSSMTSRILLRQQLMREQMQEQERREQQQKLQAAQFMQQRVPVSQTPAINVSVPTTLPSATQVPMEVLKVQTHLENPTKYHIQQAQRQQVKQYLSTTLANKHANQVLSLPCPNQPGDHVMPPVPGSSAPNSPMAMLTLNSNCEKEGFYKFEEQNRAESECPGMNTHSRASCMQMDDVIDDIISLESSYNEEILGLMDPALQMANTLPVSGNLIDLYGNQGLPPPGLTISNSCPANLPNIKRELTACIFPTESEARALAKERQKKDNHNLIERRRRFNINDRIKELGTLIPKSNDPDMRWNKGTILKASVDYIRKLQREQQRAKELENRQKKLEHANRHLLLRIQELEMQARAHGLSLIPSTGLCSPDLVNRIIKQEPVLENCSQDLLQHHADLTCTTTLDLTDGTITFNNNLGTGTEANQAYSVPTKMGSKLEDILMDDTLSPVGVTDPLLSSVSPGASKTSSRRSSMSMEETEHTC

[8] = biological target: T2, Heat shock factor protein 1; experiment: inhibition of MG132-induced HSE-luciferase signal, confirmation, cell-based, NIH3T3, luminescence, dose retest (AID 2382); type: functional;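 also: NIH3T3 fibroblasts with HSF1-driven luciferase reporter stressed by proteasome inhibitor MG132; luminescence from HSF1-driven luciferase expression after 8 hours of MG132 stress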
[9] = inhibitors of clade B AD8 Env fusion, dose response, cell-based, cherry-pick (AID 652062); type: functional;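 also: luciferase signal from cell-cell fusion driven by HIV-1 clade B AD8 Env; potency is for inhibitors of fusion seen as a drop in luminescence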
[10] = inhibitors of HIV Env-driven cell fusion, dose response, cherry-pick (AID 652057); type: functional, cell-based
[11] = biological target: Luciferin 4-monooxygenase (Photinus pyralis, UniProt P08659); experiment: firefly luciferase enzyme inhibitors, dose response, biochemical, luminescence (AID 1891)
Chain of Luciferin 4-monooxygenase (P08659 whole entry): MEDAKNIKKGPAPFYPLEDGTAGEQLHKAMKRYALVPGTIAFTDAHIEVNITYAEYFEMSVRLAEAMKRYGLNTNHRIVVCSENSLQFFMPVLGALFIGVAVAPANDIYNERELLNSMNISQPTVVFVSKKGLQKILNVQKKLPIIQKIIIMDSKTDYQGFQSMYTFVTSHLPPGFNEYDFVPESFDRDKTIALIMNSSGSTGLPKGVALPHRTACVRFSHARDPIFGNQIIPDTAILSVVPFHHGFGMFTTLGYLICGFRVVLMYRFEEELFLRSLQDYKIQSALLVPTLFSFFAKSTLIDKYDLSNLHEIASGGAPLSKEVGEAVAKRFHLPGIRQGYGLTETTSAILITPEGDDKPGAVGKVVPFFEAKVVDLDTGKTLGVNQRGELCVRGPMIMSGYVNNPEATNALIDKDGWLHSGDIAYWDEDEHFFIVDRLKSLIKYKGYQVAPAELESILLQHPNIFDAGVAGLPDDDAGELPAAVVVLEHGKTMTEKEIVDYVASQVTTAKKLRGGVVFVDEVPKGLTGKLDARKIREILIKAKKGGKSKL

[12] = Luminescence Cell-Based Dose Confirmation HTS to Identify Inhibitors of Platelet Dense Granule Release. [Related pubchem assays: 1663 (Primary HTS), 1678 (Summary of Project)]; type: functional

With `CCCNC(=O)COC(=O)c1[nH]c(C)c(C(=O)OCC)c1C` the IC50 (Protein skinhead-1) was > 100 µM (inactive).
In the case of `Brc1ccc(OCc2cn3ccccc3n2)cc1`, the IC50 (Protein skinhead-1) is reported as 41.9 µM (active) and the EC50 [1] is reported as > 260 µM (inactive).
For `COC(=O)CC1(c2cccc3ccccc23)C(=O)c2ccccc2C1=O`, the AC50 [2] was 5.91 µM (active) and the EC50 (Protein RecA) was 4.46 µM (active).
In the case of `COc1ccc(-c2csc(Nc3ccccc3)n2)cc1`, the IC50 (Protein skinhead-1) is reported as > 100 µM (inactive) and the IC50 [3] is reported as 10.3 µM (not active).
With `O=C(CSc1nc2ccccc2c(=O)n1-c1ccccc1)N1CCCc2ccccc21` the CC50 [4] was 39 µM (active).
In the case of `CCOc1ccc2nc(NC(=O)C3CCCN(S(=O)(=O)c4cccs4)C3)sc2c1` (stereo not drawn), the CC50 [4] is reported as 24.3 µM (active), the EC50 [5] is reported as > 60 µM (not active) and the EC50 [6] is reported as 2.51 µM (active).
In the case of `Cc1nn(Cc2ccccc2)c2c1C(c1ccc(Cl)cc1)C(C#N)=C(N)O2` (stereo not drawn), the AC50 [2] is reported as 6.41 µM (active) and the EC50 (Protein RecA) is reported as 3.58 µM (active).
For `O=C(Nc1nc(-c2ccccc2)cs1)c1ccccc1F`, the IC50 (Protein skinhead-1) was > 100 µM (inactive).
With `COc1cc2c(cc1OC)C(C)N(S(=O)(=O)c1cnc(Cl)c(Cl)c1)CC2` (stereo not drawn) the AC50 [7] was 12.1 µM (active) and the EC50 [1] was 29.3 µM (active).
With `COc1cccc2c(C)c(C(=O)O)[nH]c12` the IC50 [3] was 2.81 µM (active) and the EC50 [8] was 5.27 µM (active).
For `C#CCCc1ccccc1/C=[N+](/C)[O-]`, the AC50 [7] was 9.4 µM (active).
In the case of `C#Cc1cccc(-n2nnc(C(=O)OC)c2-c2ccccc2)c1`, the IC50 (Protein skinhead-1) is reported as > 100 µM (inactive).
In the case of `O=C(CCCl)Nc1nc2c(s1)CCc1ccccc1-2`, the CC50 [4] is reported as 4.52 µM (active) and the EC50 [1] is reported as 22.2 µM (active).
For `CC1=NN(c2ccccc2)C(=O)/C1=C\c1cc(C)n(-c2cccnc2)c1C`, the AC50 [2] was 44.8 µM (active) and the EC50 (Protein RecA) was 88.8 µM (active).
With `O=C(CN1C(=O)CCS(=O)(=O)c2ccccc21)NCc1ccccc1` the IC50 (Protein skinhead-1) was > 100 µM (inactive).
With `Cc1onc(-c2c(Cl)cccc2Cl)c1C(=O)n1nnc2ccccc21` the AC50 [2] was 16.4 µM (active) and the EC50 (Protein RecA) was 26.5 µM (active).
For `O=C(C[C@H]1CC[C@H]2[C@@H](COC[C@H](O)CN2C(=O)Nc2ccc(Cl)c(Cl)c2)O1)NCc1ccncc1`, the AC50 [9] was 26.5 µM (active) and the AC50 [10] was 31.5 µM (active).
For `C(=C1c2ccccc2-c2ccccc21)c1ccncc1`, the IC50 (Protein skinhead-1) was > 100 µM (inactive).
With `CCOC(=O)c1c(N)sc2c1CCSC2` the IC50 (Protein skinhead-1) was > 100 µM (inactive).
With `COc1ccc(NC(=O)Nc2ccc(N3CCOCC3)c3nonc23)c(OC)c1` the IC50 (Protein skinhead-1) was > 100 µM (inactive).
For `COC(=O)/C=C1\SC(N/N=C/c2ccc(Cl)cc2)=NC1=O`, the EC50 [11] was 41.5 µM (active), the CC50 [4] was 23.5 µM (active) and the EC50 [12] was > 112 µM (not active).
In the case of `O=C(Cc1ccccc1)c1c[nH]c(C(=O)C(Cl)(Cl)Cl)c1`, the AC50 [2] is reported as 4.92 µM (active) and the EC50 (Protein RecA) is reported as 4.99 µM (active).
With `Cc1cccc(-n2ncc3c(NC(C)C)ncnc32)c1` the CC50 [4] was 34.4 µM (active).
